Experimental data from PubChem BioAssay AID624344 (Sanford-Burnham Center for Chemical Genomics, 2012).
Calls of active or inactive are those of the source. How the calls were made is not given here.

What was measured:
[1] = system: Cytotoxicity; assay: NFkB reporter suppression in cystic fibrosis bronchial cells – cell-based, uHTS hits, panel, cytotoxicity readout, dose response (AID 624344); details: CF bronchial epithelial cells, mean of runs
[2] = as above; details: CF bronchial epithelial cells, PAF-induced NFkB reporter inhibition; with PAF, mean of runs

Compound	IC50 [1]	IC50 [2]
Cc1ccc(C(=O)Nc2cccc(C(F)(F)F)c2)cc1NC(=O)c1nccnc1N	9.52 µM	8.15 µM
C/C(=N\Nc1cc(N2CCOCC2)ncn1)c1cccc([N+](=O)[O-])c1	14.4 µM	4.21 µM
Clc1ccc(CSc2nnc(-c3ccncc3)o2)cc1	> 79 µM (inactive)	5.92 µM
C/C(=N/NC(=O)c1cccs1)c1ccc(NC(=O)COc2ccc(Cl)cc2)cc1	26.5 µM	inactive
Cc1ccc(NC(=O)c2nc[nH]c2C(=O)NCCCNC(=O)c2[nH]cnc2C(=O)Nc2ccc(C)cc2)cc1	14 µM	3.82 µM
O=C(Nc1ccccc1)Nc1ncc([N+](=O)[O-])s1	12.6 µM	2.73 µM
COc1ccc(-c2cn[nH]c2-c2ccc(OCc3ccccc3F)cc2O)cc1OC	18 µM	3.57 µM
Cc1ccc(NC(=O)Nc2nnc(-c3ccncc3)s2)cc1	11 µM	5.53 µM
Nc1nc(N)nc(-c2cc([N+](=O)[O-])ccc2O)n1	> 79 µM (inactive)	8.82 µM
COc1ccc(-c2cnc(N)nc2-c2ccc(OC)cc2O)cc1	36.5 µM	4.66 µM
Nc1nc(N)nc(-c2cc(O)ccc2O)n1	21.2 µM	3.31 µM
Nc1nccc(SCc2ccc(Cl)cc2Cl)n1	> 79 µM (inactive)	14.3 µM
COc1ccc2cc3c(N)nn(C(=O)c4ccccc4[N+](=O)[O-])c3nc2c1	40.2 µM	0.54 µM
COC(=O)C1=C(C(=O)OC)[C@@H]2N(Cc3ccccc3)c3ccccc3[C@@]23C[C@@H](C(=O)OC)N(C(=O)c2ccc(Br)cc2)C3=N1	28.5 µM	5.67 µM
CC(=O)c1c(C)n(-c2ccccc2)c2ccc(O)cc12	> 79 µM (inactive)	5.58 µM
COc1cc(/C=N/NC(=O)Nc2cccc3nsnc23)cc(OC)c1OC	14.7 µM	2.53 µM
N#Cc1c(-c2ccc(Cl)cc2)n(O)c2ccccc12	3.98 µM	2.85 µM
N#CC(C#N)=C1SC(=Nc2ccccc2)C(=Nc2ccccc2)N1c1ccccc1	12.4 µM	8.12 µM
NC(=O)c1nsc(C(=O)N(c2ccccc2)C(C(=O)NCc2ccc(F)cc2)c2ccc(O)cc2)c1N (stereo not drawn)	8.81 µM	4.75 µM
Cc1ccc(C(C(=O)NCc2ccccc2)N(Cc2cccs2)C(=O)c2ccc3c(c2)OCCO3)cc1 (stereo not drawn)	3.48 µM	3.04 µM
CN(C)CCCN(C(=O)CCS(=O)(=O)c1ccccc1)c1nc2cc3c(cc2s1)OCO3	7.47 µM	1.7 µM

Compound	IC50 [1]	IC50 [2]
NC(=O)c1sc2nccc(Nc3ccccc3)c2c1N	40 µM	0.374 µM
FC(F)Sc1ccc(NC(=S)NCC2CCCCC2)cc1	7.18 µM	5.53 µM
COc1ccc(Oc2cc(NC(=O)c3nn(C)cc3[N+](=O)[O-])cc([N+](=O)[O-])c2)cc1	1.69 µM	3.27 µM
COc1cccc2c(SCC(=O)N/N=C/c3ccccc3)cc(C)nc12	38.6 µM	6.95 µM
CC(=O)Oc1c(C(=O)c2nnc(C)o2)c(=O)n(Cc2ccccc2)c2ccccc12	14.9 µM	2.36 µM
CCOC(=O)C1=C(CC)Nc2ccccc2N=C1NC(=O)Nc1ccc(Cl)c(Cl)c1	6.06 µM	2.74 µM
C[C@]12CCC(O)CC1CCC1C2CC[C@]2(C)C(c3cc(C(F)(F)F)n[nH]3)CCC12 (stereo partly drawn)	5.25 µM	1.92 µM
O=C(c1nnsc1S(=O)(=O)c1ccc(Cl)cc1)N1CCOCC1	9.67 µM	3.85 µM
CCOc1ccc(-n2c(C)c(C(C)=O)c3cc(O)ccc32)cc1	> 79 µM (inactive)	1.87 µM
COc1ccc(Nc2nc(-c3cccs3)nc3ccccc23)cc1S(=O)(=O)N1CCOCC1	8.98 µM	3.78 µM
NC(N)=NN=C(c1ccc(F)cc1)c1ccc(C(F)(F)F)cc1	25.3 µM	5.87 µM
O=C(/C=C/c1cccc([N+](=O)[O-])c1)NC(=S)Nc1ccc(CN2CCOCC2)cc1	19.8 µM	5.19 µM
Cc1c(Cl)cccc1NC(=O)CSc1nc2ncc(Cl)cc2[nH]1	15.5 µM	10.6 µM
COc1ccc(OC)c(N(CCN2C(=O)c3ccccc3C2=O)C(=O)CCl)c1	4.33 µM	4.03 µM
CCc1cc(SC#N)cc(C)c1NC(=O)CCl	43.5 µM	5.47 µM
COc1ccc(S(=O)(=O)N2c3ccc(F)cc3CCC2C)cc1 (stereo not drawn)	> 79 µM (inactive)	inactive
COc1ccc2[nH]c3c(c2c1)CCNC3=O	> 79 µM (inactive)	1.37 µM
Nc1ncc(-c2ccccc2)c(-c2ccc(O)cc2O)n1	> 79 µM (inactive)	4.01 µM
FC(F)(F)c1nnc2c(Sc3ccc(Cl)cc3)nc3ccccc3n12	1.03 µM	0.859 µM
CCOC(=O)c1[nH]c2c(c1C)C(=O)CC(c1ccco1)C2 (stereo not drawn)	> 79 µM (inactive)	inactive
C=C1C(=O)O[C@@H]2[C@H]3O[C@]3(C)CC/C=C(\C)CC[C@@H]12	18.1 µM	3.59 µM

Compound	IC50 [1]	IC50 [2]
O=C(Nc1ccc(Br)c2ccccc12)c1ccc2ccccc2c1O	2.38 µM	1.93 µM
CN1CCN(S(=O)(=O)c2ccc(Sc3nnnn3-c3ccccc3)c([N+](=O)[O-])c2)CC1	3.12 µM	2.06 µM
CC(=O)OC1(C)CC(C)C(=O)C(C(O)CC2CC(=O)NC(=O)C2)C1 (stereo not drawn)	0.177 µM	< 0.15 µM
Cc1nn(-c2ccccn2)c2c1-c1nc(N)ncc1CC2	65.3 µM (inactive)	6.76 µM
O=C1/C(=C/c2cccnc2)CCc2c1[nH]c1ccccc21	25.1 µM	5.47 µM
COc1ccc(-n2ncc3c(N4CCN(Cc5ccccc5)CC4)ncnc32)cc1	6.95 µM	3.85 µM
CCOC(=O)C1=C(C)Nc2ccccc2N=C1NC(=O)c1oc2ccccc2c1COC	30.1 µM	4.25 µM
Cc1ccc2occ(/C=N/NC(=O)c3ccccc3Br)c(=O)c2c1	40.4 µM	4.98 µM
NC(=O)N/N=C/c1c(Sc2nnnn2-c2ccccc2)nc2ccccn2c1=O	6.87 µM	0.653 µM
COc1cccc(-c2ccc3ncnc(NCc4cc(C)cs4)c3c2)c1	26.9 µM	3.86 µM
O=C1CC(=O)OC(c2ccc([N+](=O)[O-])cc2)O1	1.79 µM	2.59 µM
COc1cccc(-c2cc(NC=O)c3ncc(-c4ccc(C(C)=O)cc4)n3c2)c1	37.2 µM	11.8 µM
CCOC(=O)c1c(-c2ccc(C)cc2)csc1NC(=O)c1ccc(N2C(=O)CCC2=O)cc1	61 µM (inactive)	inactive
COc1ccc(COC(=O)C2=C(C)NC(=O)NC2c2ccc(F)cc2)cc1 (stereo not drawn)	39.8 µM	8.9 µM
Cc1cccc(C(=O)N[C@H](C(=O)Nc2nc3ccccc3[nH]2)C(C)C)c1	19.6 µM	14.9 µM
COc1ccc(CN(C(=O)CSc2nnc(-c3c[nH]c4ccccc34)o2)c2ccc(F)cc2)cc1OC	7.44 µM	3.94 µM
CC(C)n1c(SCc2ccccc2F)nc2c1c(=O)n(C)c(=O)n2C	> 79 µM (inactive)	7.01 µM
CCC(=O)Nc1nc(C)c(-c2csc(Nc3cccc(O)c3)n2)s1	> 79 µM (inactive)	3.06 µM
COC(=O)c1ccc2c(c1)C(C)(C)C(/C=C/c1ccccc1O)=[N+]2C	35.4 µM	5.88 µM
Cc1ccc(NC(=O)c2ccccc2NS(=O)(=O)c2ccc(Cl)s2)cc1S(=O)(=O)N1CCOCC1	8.23 µM	3.36 µM
CC(=O)Oc1c(Br)cc(N(C(C)=O)S(=O)(=O)c2ccccc2)c2ccccc12	9.15 µM	7.32 µM

Compound	IC50 [1]	IC50 [2]
CCc1cc(-c2[nH]ncc2-c2ccc(OC)cc2)c(O)cc1O	31 µM	3.56 µM
COc1ccc2cc(C(N)=O)c(=Nc3ccc(C)cc3)oc2c1	13.3 µM	2.58 µM
O=C(c1nnsc1S(=O)c1ccc(Cl)cc1)N1CCOCC1 (stereo not drawn)	10.7 µM	1.87 µM
Cc1ccc(CCC(=O)Nc2ncc(Cc3cccc(Cl)c3Cl)s2)o1	19.1 µM	8.87 µM
NC(=O)c1sc2nc3c(c(-c4ccco4)c2c1N)CCCC3	44.5 µM	2.73 µM
C=CC(=O)Nc1cccc(Oc2ncnc3[nH]cc(-c4cnc5ccccc5c4)c23)c1	54.8 µM (inactive)	1.35 µM
COc1ccc(C2=Nn3c(nnc3-c3ccncc3)SC2)cc1	40 µM	2.72 µM
COc1cc(CCc2ccccc2)c(C(=O)O)c(O)c1C/C=C(/C)CCC=C(C)C	14.7 µM	6.26 µM
Cn1c(Sc2ccc(Br)cc2)c(C=O)c2ccccc21	5.64 µM	1.4 µM
CC(=O)c1ccc(NC(=O)Nc2ccc3c(c2)N(C)C(=O)CS3)cc1	29.2 µM	5.14 µM
C=C1C(C)C2C(Cc3ccccc3)NC(=O)C23OC(=O)/C=C/C(O)CCCC(C)C/C=C/C3C1O (stereo not drawn)	2.32 µM	1.25 µM
COc1ccc2c(c1)c(C(C)=O)c(C)n2-c1ccc(C(C)=O)cc1	44.5 µM	2.83 µM
O=C(Nc1cccc2[nH]ncc12)c1ccc(F)cc1	> 79 µM (inactive)	1.06 µM
Cc1ccc(NC(=O)Nc2cccc([N+](=O)[O-])c2)cc1F	3.58 µM	6.2 µM
O=[N+]([O-])c1ccc(Oc2ccc(F)cc2Br)c2ccncc12	38.6 µM	3.97 µM
CC1CCc2sc3ncnc(N4CCOCC4)c3c2C1 (stereo not drawn)	7.61 µM	5.9 µM
Cc1cc(C)c(O)c(CN(C)Cc2cc(Cl)cc(Cl)c2O)c1	9.57 µM	4.39 µM
COc1ccc(OC)c(C2CC(=O)c3c([nH]c(C(=O)OC(C)C)c3C)C2)c1 (stereo not drawn)	> 79 µM (inactive)	inactive
Brc1ccc2ncnc(NCc3ccco3)c2c1	72.7 µM (inactive)	5.67 µM
CC1C(c2ccccc2)OCCN1C(=S)Nc1ccc(S(=O)(=O)N2CCCCC2)cc1 (stereo not drawn)	56.5 µM (inactive)	9.52 µM
COc1cc(-c2cnc3c(NC=O)cc(-c4ccc(C)cc4)cn23)cc(OC)c1OC	22 µM	> 79 µM (inactive)
